# From patent US20170038387A1, “METHODS FOR TREATING CHRONIC LYMPHOCYTIC LEUKEMIA AND THE USE OF BIOMARKERS AS A PREDICTOR OF CLINICAL SENSITIVITY TO IMMUNOMODULATORY THERAPIES” (Celgene Corporation, priority 2015, published 2017)
# Key:
# CLL cell lines = test: Thymidine incorporation assay (cell proliferation); assay type: cell-based
# Procedure: After four days, cells were diluted 1:7 with fresh media, containing the same concentration of treatment compound. Three days later, ^3H-thymidine was added to label proliferating cells for 6-7 hours. Cells were then harvested onto filter plates for counting on a scintillation counter.
# [1] = system: samples from CLL patients; test: in vitro proliferation assays on samples from four groups of CLL patients; assay type: cell-based, human
# From the text: The samples used in this study were from four groups of CLL patients.
# PDE6D = test: Western blot of residual PDE6D protein level; assay type: cell-based; conditions: 1 μM Compound A vs 10 μM lenalidomide, 72 hours; EHEB, I83-E95, Mec2, CII, and CI
# Procedure: Cells were then harvested and processed for SDS-PAGE and western blot. PDE6D antibody was purchased from Pierce and used at 1:300. For western blot quantification, the band intensity was measured using an Odyssey imager and then normalized to β-actin loading controls. Scatter plot: […]
# primary CLL samples = test: TMT-tagging and mass-spectrometry profiling of relative protein abundance after compound exposure; assay type: cell-based, human
# From the text: Data import: Relative abundance (RA) data was imported into the R statistical programming environment v.3.1.2. Proteins with less than one spectral count in any of the three MS runs for each case scenario were filtered out and relative abundance was scale normalized to the same median by using normalizeBetweenArrays( ) function implemented in the limma package for Bioconductor (see Yang et al., Nucleic Acids Research, 30(4), e15 (2002)).
# Comparative analysis: RA scores were log 2-transformed to perform direct comparison of compounds exposure versus DMSO control and a paired moderated t-test (see Smyth, Statistical Applications in Genetics and Molecular Biology, 3(1), article 3 (2004)) was performed by using lmfit( ) and eBayes( ) functions form limma package to test differential relative abundance between experimental conditions. For differential analysis across cases, the log-2 fold changes of replicates for two of the case scenarios were considered.
# Linear regression analysis: Linear regression was modeled by using lm( ) function from the stats package. This function provided the correlation coefficients as well as the linear fitted model. Data were assessed for outliers detection within the linear model via the Studentized residuals method (implemented in outlierTest( ) function from car package) and deemed significant if their q-values were under a threshold of 0.05 (5%).
# The proteins subjected to the analysis were those with more than one spectral count matched in three MS runs representing each case scenario. A total of 6114, 6070, 5982 and 5382 proteins were retained for each case scenario. Differential expression analysis was applied to the high and consistent coverage of 4594 proteins quantified across all case scenarios. FIGS. 2A-2D show distribution of normalized relative abundances for each replicate of the four case scenarios (Cases B1-B4). The standard deviation of each replicate is represented as a stair-plot line at the bottom of the boxplot. FIGS. 3A-3D show heatmaps representing correlations of log 2 fold-changes of protein levels post compound treatment as compared with DMSO across conditions for all case scenarios. Low correlation of log 2 fold-changes at 6 hours may be due to the alteration of a small subset of proteins at an early time point without strong general effects across the proteome. Stronger correlations at 24 hours can be linked to a higher proportion of proteins perturbed reflecting downstream changes upon compound exposure.
# [2] = Cmp A vs. len, Case B1, 10 μM, 24 hours
# [3] = Cmp A vs. len, Case B2, 10 μM, 24 hours
# [4] = Cmp A vs. len, Case B3, 10 μM, 24 hours
# [5] = FIG. 5 heatmap, 10 μM, 24 hours, vs DMSO
structure (smiles),measurement,setting,value
"Cc1nc2cccc(N)c2c(=O)n1C1CCC(=O)NC1=O (stereo not drawn) [Compound A, 3-(5-amino-2-methyl-4-oxo-4H-quinazolin-3-yl)-piperidine-2,6-dione]",cell growth inhibition,"CLL cell lines; 1 μM Compound A vs 10 μM lenalidomide, EHEB, I83-E95, Mec2, CII, and CI",more cell growth inhibition
same,responsiveness of cell lines to treatment,CLL cell lines; Bucket #1 (EHEB and I83-E95),responsive to both compounds
same,responsiveness of cell lines to treatment,"CLL cell lines; Bucket #2 (Mec2, CII, and CI)",more sensitive to Compound A than to lenalidomide
same,responsiveness of cell lines to treatment,"CLL cell lines; Bucket #3 (WA-C3-CD5, WA-OSEL, Mec1, and PGA1)",responsive to Compound A
same,responsiveness of cell lines to treatment,CLL cell lines; Bucket #4 (HG3),not responsive to either Compound A or lenalidomide
same,effect on cell proliferation,[1]; samples from the fourth group of patients (Case B4),neither Compound A nor lenalidomide had any effect on cell proliferation
same,effect on cell proliferation,[1]; samples from the second group of patients (Case B2),stronger proliferation reduction effect than lenalidomide
same,effect on cell proliferation,[1]; samples from the third group of patients (Case B3),reduced cell proliferation
same,PDE6D reduction,PDE6D,more PDE6D reduction
same,"protein abundance levels of SELL, SNX20 and KLF13 upon exposure","primary CLL samples; 10 μM, 24 hours",down-regulated
same,level of WIZ (widely-interspaced zinc-finger) upon exposure,primary CLL samples; Case B1,decreased
same,"RA upon Cmp A vs. len Treatment, IKZF1 (Q13422)","primary CLL samples; Case B1, 10 μM, 24 hours",Lower
same,"RA upon Cmp A vs. len treatment, BCL2L1 (Q07817)","primary CLL samples; Case B1, 10 μM, 24 hours",Higher
same,"RA upon Cmp A vs. len treatment, GZMB (P10144)","primary CLL samples; Case B1, 10 μM, 24 hours",Lower
same,"RA upon Cmp A vs. len treatment, IGHM (P01871-2)","primary CLL samples; Case B1, 10 μM, 24 hours",Lower
same,"RA upon Cmp A vs. len treatment, IKZF1 (Q13422-2)","primary CLL samples; Case B1, 10 μM, 24 hours",Lower
same,"RA upon Cmp A vs. len treatment, IRF8 (Q02556)","primary CLL samples; Case B1, 10 μM, 24 hours",Lower
same,"RA upon Cmp A vs. len treatment, KLF13 (Q9Y2Y9)","primary CLL samples; Case B1, 10 μM, 24 hours",Lower
same,"RA upon Cmp A vs. len treatment, LGALS9 (O00182)","primary CLL samples; Case B1, 10 μM, 24 hours",Lower
same,"RA upon Cmp A vs. len treatment, MARCKS (P29966)","primary CLL samples; Case B1, 10 μM, 24 hours",Higher
same,"RA upon Cmp A vs. len treatment, NDE1 (Q9NXR1)","primary CLL samples; Case B1, 10 μM, 24 hours",Higher
same,"RA upon Cmp A vs. len treatment, NFKBIE (O00221)","primary CLL samples; Case B1, 10 μM, 24 hours",Lower
same,"RA upon Cmp A vs. len treatment, PTK2B (Q14289-2)","primary CLL samples; Case B1, 10 μM, 24 hours",Higher
same,"RA upon Cmp A vs. len treatment, SAMSN1 (Q9NSI8)","primary CLL samples; Case B1, 10 μM, 24 hours",Higher
same,"RA upon Cmp A vs. len treatment, SELL (P14151-2)","primary CLL samples; Case B1, 10 μM, 24 hours",Lower
same,"RA upon Cmp A vs. len treatment, SLAMF1 (Q13291)","primary CLL samples; Case B1, 10 μM, 24 hours",Higher
same,"RA upon Cmp A vs. len treatment, SNX20 (Q7Z614)","primary CLL samples; Case B1, 10 μM, 24 hours",Lower
same,"RA upon Cmp A vs. len treatment, SOD2 (P04179)","primary CLL samples; Case B1, 10 μM, 24 hours",Higher
same,"RA upon Cmp A vs. len treatment, TCF7 (P36402-3)","primary CLL samples; Case B1, 10 μM, 24 hours",Lower
same,"RA upon Cmp A vs. len treatment, TRAF1 (Q13077)","primary CLL samples; Case B1, 10 μM, 24 hours",Higher
same,"RA upon Cmp A vs. len treatment, WIZ (M0QXA7)","primary CLL samples; Case B1, 10 μM, 24 hours",Lower
same,"RA upon Cmp A vs. len treatment, ZBTB10 (Q96DT7)","primary CLL samples; Case B1, 10 μM, 24 hours",Higher
same,"RA upon Cmp A vs. len Treatment, IKZF1 (Q13422)","primary CLL samples; Case B2, 10 μM, 24 hours",Lower
same,"RA upon Cmp A vs. len Treatment, IKZF3 (Q9UKT9)","primary CLL samples; Case B2, 10 μM, 24 hours",Lower
same,abundance levels of GBP2 and GBP4 upon exposure,primary CLL samples; Case B3,increased abundance levels
same,"RA upon Cmp A vs. len Treatment, CD40 (P25942)","primary CLL samples; Case B3, 10 μM, 24 hours",Higher
same,"RA upon Cmp A vs. len Treatment, CR2 (P20023-3)","primary CLL samples; Case B3, 10 μM, 24 hours",Higher
same,"RA upon Cmp A vs. len Treatment, CTSS (P25774)","primary CLL samples; Case B3, 10 μM, 24 hours",Higher
same,"RA upon Cmp A vs. len Treatment, GBP1 (P32455)","primary CLL samples; Case B3, 10 μM, 24 hours",Higher
same,"RA upon Cmp A vs. len Treatment, IKZF1 (Q13422)","primary CLL samples; Case B3, 10 μM, 24 hours",Lower
same,"RA upon Cmp A vs. len Treatment, IKZF3 (Q9UKT9)","primary CLL samples; Case B3, 10 μM, 24 hours",Lower
same,"RA upon Cmp A vs. len Treatment, ISG20 (Q96AZ6)","primary CLL samples; Case B3, 10 μM, 24 hours",Higher
same,"RA upon Cmp A vs. len Treatment, SASH1 (O94885)","primary CLL samples; Case B3, 10 μM, 24 hours",Higher
same,"RA upon Cmp A vs. len Treatment, SEMA7A (O75326)","primary CLL samples; Case B3, 10 μM, 24 hours",Higher
same,"RA upon Cmp A vs. len treatment, PTK2B (Q14289-2)","primary CLL samples; Case B3, 10 μM, 24 hours",Higher
same,"RA upon Cmp A vs. len treatment, SAMSN1 (Q9NSI8)","primary CLL samples; Case B3, 10 μM, 24 hours",Higher
same,"RA upon Cmp A vs. len treatment, SELL (P14151-2)","primary CLL samples; Case B3, 10 μM, 24 hours",Lower
same,"RA upon Cmp A vs. len treatment, SLAMF1 (Q13291)","primary CLL samples; Case B3, 10 μM, 24 hours",Higher
same,"RA upon Cmp A vs. len treatment, SOD2 (P04179)","primary CLL samples; Case B3, 10 μM, 24 hours",Higher
same,"RA upon Cmp A vs. len treatment, TRAF1 (Q13077)","primary CLL samples; Case B3, 10 μM, 24 hours",Higher
same,IRF5 protein level,primary CLL samples; Case B4 (not quantified in B2),exclusively decreased
same,"RA upon Cmp A vs. len Treatment, PDE6D (O43924)","primary CLL samples; Case B4, 10 μM, 24 hours",Lower
same,logFC BCL2L1 (Q07817),primary CLL samples; [2],0.5326
same,logFC GZMB (P10144),primary CLL samples; [2],−1.175
same,logFC IGHM (P01871-2),primary CLL samples; [2],−0.6625
same,logFC IKZF1 (Q13422),primary CLL samples; [2],−1.709
same,logFC IKZF1 (Q13422-2),primary CLL samples; [2],−2.169
same,logFC IRF8 (Q02556),primary CLL samples; [2],−0.5643
same,logFC KLF13 (Q9Y2Y9),primary CLL samples; [2],−1.092
same,logFC LGALS9 (O00182),primary CLL samples; [2],−0.5646
same,logFC MARCKS (P29966),primary CLL samples; [2],1.438
same,logFC NDE1 (Q9NXR1),primary CLL samples; [2],0.7281
same,logFC NFKBIE (O00221),primary CLL samples; [2],−0.7408
same,logFC PTK2B (Q14289-2),primary CLL samples; [2],0.9815
same,logFC SAMSN1 (Q9NSI8),primary CLL samples; [2],0.6554
same,logFC SELL (P14151-2),primary CLL samples; [2],−1.823
same,logFC SLAMF1 (Q13291),primary CLL samples; [2],0.9251
same,logFC SNX20 (Q7Z614),primary CLL samples; [2],−0.5611
same,logFC SOD2 (P04179),primary CLL samples; [2],0.6081
same,logFC TCF7 (P36402-3),primary CLL samples; [2],−0.7071
same,logFC TRAF1 (Q13077),primary CLL samples; [2],0.768
same,logFC WIZ (M0QXA7),primary CLL samples; [2],−0.4839
same,logFC ZBTB10 (Q96DT7),primary CLL samples; [2],0.9382
same,logFC IKZF1 (Q13422),primary CLL samples; [3],−2.186
same,logFC IKZF3 (Q9UKT9),primary CLL samples; [3],−2.626
same,logFC CD40 (P25942),primary CLL samples; [4],0.8064
same,logFC CR2 (P20023-3),primary CLL samples; [4],0.7925
same,logFC CTSS (P25774),primary CLL samples; [4],0.5932
same,logFC GBP1 (P32455),primary CLL samples; [4],1.117
same,logFC IKZF1 (Q13422),primary CLL samples; [4],−2.686
same,logFC IKZF3 (Q9UKT9),primary CLL samples; [4],−1.425
same,logFC ISG20 (Q96AZ6),primary CLL samples; [4],0.6234
same,logFC PTK2B (Q14289-2),primary CLL samples; [4],0.8361
same,logFC SAMSN1 (Q9NSI8),primary CLL samples; [4],0.89
same,logFC SASH1 (O94885),primary CLL samples; [4],0.7177
same,logFC SELL (P14151-2),primary CLL samples; [4],−1.03
same,logFC SEMA7A (O75326),primary CLL samples; [4],0.904
same,logFC SLAMF1 (Q13291),primary CLL samples; [4],1.086
same,logFC SOD2 (P04179),primary CLL samples; [4],0.6319
same,logFC TRAF1 (Q13077),primary CLL samples; [4],0.7523
same,logFC PDE6D (O43924),"primary CLL samples; Cmp A vs. len, Case B4, 10 μM, 24 hours",−1.494
same,IKZF1 (Ikaros) protein level,primary CLL samples; [5],decreases across all experimental conditions with stronger effect upon Compound A exposure
same,levels of Group 4 proteins (6 proteins including IKZF3 and a second IKZF1 isoform) upon exposure,primary CLL samples; [5],decrease significantly
same,"protein abundance levels of Group 3 proteins (SMNX20, SELL, KLF13, WIZ, IKZF1, NFKBIE, TCF7 and IRF8) upon exposure",primary CLL samples; [5],decrease
same,"STAT1 protein abundance, log 2 fold-change vs DMSO",primary CLL samples; resistant scenario (Case B4),−0.018
same,"STAT1 protein abundance, log 2 fold-change vs DMSO",primary CLL samples; sensitive patient sample (Case B3),0.547
